Laboratory results taken from patent publication US6906205B2, “Spiro and dispiro 1,2,4-trioxolane antimalarials” (Medicines for Malaria Venture MMV, priority 2002, dated 2005).
Values after ≈ are worked out from the molar mass of the structure shown.

What follows are molecules tested on P. falciparum K1 strain (Thailand resistant to chloroquine) (assay: semiautomated microdilution assay, [3H]-hypoxanthine incorporation, K1 strain). Settings: K1 strain, 72 h incubation.
Assay type: cell-based, Plasmodium falciparum
Method: (§1) Various OZ compounds were tested by the semiautomated microdilution assay against intraerythrocytic forms of Plasmodium falciparum derived from asynchronous stock cultures.
(§2) Fifty percent inhibitory concentration (IC50) were estimated by Logit regression analysis.

Compound | IC50 (ng/ml) K1
O=[N+]([O-])c1ccc(C2(c3ccccc3)OOC3(O2)C2CC4CC(C2)CC3C4)cc1 (centres unmarked) [OZ95] | 2.8 ng/mL (≈ 7.12 nM)
O=S(=O)(c1ccc(Cl)cc1)N1CCC2(CC1)OOC1(O2)C2CC3CC(C2)CC1C3 (centres unmarked) [OZ57] | 3.1 ng/mL (≈ 7.05 nM)
Fc1ccc(C2(c3ccc(F)cc3)OOC3(O2)C2CC4CC(C2)CC3C4)cc1 (centres unmarked) [OZ44] | 2.5 ng/mL (≈ 6.5 nM)
COCC(=O)N(C1CCCCC1)C1CCC2(CC1)OOC1(O2)C2CC3CC(C2)CC1C3 (centres unmarked) [OZ174] | 27 ng/mL (≈ 62.3 nM)
C1CCC2(CC1)OOC1(CCC3(CC1)OOC1(CCCCC1)O3)O2 (centres unmarked) [OZ09] | 32 ng/mL (≈ 94 nM)
CC(C)(CO)NC(=O)[C@H]1CC[C@]2(CC1)OOC1(O2)C2CC3CC(C2)CC1C3 (some centres unmarked) [OZ129] | 10/>10 ng/ml
O=C(O)c1ccc(C2(c3ccc(C(=O)O)cc3)OOC3(O2)C2CC4CC(C2)CC3C4)cc1 (centres unmarked) [OZ135] | >100/>100 ng/ml

What follows are molecules tested on P. falciparum NF54 strain (sensitive to standard antimalarials) (assay: semiautomated microdilution assay, [3H]-hypoxanthine incorporation, NF54 strain). Settings: NF54 strain, 72 h incubation.
Assay type: cell-based, Plasmodium falciparum
Method: as §1, §2

Compound | IC50 (ng/ml) NF54
O=[N+]([O-])c1ccc(C2(c3ccccc3)OOC3(O2)C2CC4CC(C2)CC3C4)cc1 (centres unmarked) [OZ95] | 1.3 ng/mL (≈ 3.3 nM)
O=S(=O)(c1ccc(Cl)cc1)N1CCC2(CC1)OOC1(O2)C2CC3CC(C2)CC1C3 (centres unmarked) [OZ57] | 2.8 ng/mL (≈ 6.36 nM)
Fc1ccc(C2(c3ccc(F)cc3)OOC3(O2)C2CC4CC(C2)CC3C4)cc1 (centres unmarked) [OZ44] | 2.3 ng/mL (≈ 5.98 nM)
COCC(=O)N(C1CCCCC1)C1CCC2(CC1)OOC1(O2)C2CC3CC(C2)CC1C3 (centres unmarked) [OZ174] | 34 ng/mL (≈ 78.4 nM)
C1CCC2(CC1)OOC1(CCC3(CC1)OOC1(CCCCC1)O3)O2 (centres unmarked) [OZ09] | 39 ng/mL (≈ 115 nM)
CC(C)(CO)NC(=O)[C@H]1CC[C@]2(CC1)OOC1(O2)C2CC3CC(C2)CC1C3 (some centres unmarked) [OZ129] | 10/>10 ng/ml
O=C(O)c1ccc(C2(c3ccc(C(=O)O)cc3)OOC3(O2)C2CC4CC(C2)CC3C4)cc1 (centres unmarked) [OZ135] | >100/>100 ng/ml

What follows are molecules tested on ANKA strain of P. berghei (assay: single dose STI in vivo screen in infected mice). Settings: percent reduction in parasitemia day 3 post-infection; single 10 mg/kg po in 3% ethanol and 7% Tween 80; mice.
Set-up: species or system Plasmodium berghei
Procedure, shortened: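 Groups of 3-5 Moro SPF or NMRI mice infected with the ANKA strain of P. berghei received a single dose of trioxolane on day one post-infection. The compound was given in 3% ethanol and 7% Tween 80 or in SSV (0.5% w/v CMC, 0.5% v/v benzyl alcohol, 0.4% v/v Tween 80, 0.9% w/v sodium chloride in water). Antimalarial activity was scored as percent reduction in parasitemia on day three and as survival time versus untreated controls. Survival to day 30 counted as cure.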

Compound | Activity (%) po [%]
O=[N+]([O-])c1ccc(C2(c3ccccc3)OOC3(O2)C2CC4CC(C2)CC3C4)cc1 (centres unmarked) [OZ95] | 31
O=S(=O)(c1ccc(Cl)cc1)N1CCC2(CC1)OOC1(O2)C2CC3CC(C2)CC1C3 (centres unmarked) [OZ57] | 32
Fc1ccc(C2(c3ccc(F)cc3)OOC3(O2)C2CC4CC(C2)CC3C4)cc1 (centres unmarked) [OZ44] | 99.3
COCC(=O)N(C1CCCCC1)C1CCC2(CC1)OOC1(O2)C2CC3CC(C2)CC1C3 (centres unmarked) [OZ174] | 0
C1CCC2(CC1)OOC1(CCC3(CC1)OOC1(CCCCC1)O3)O2 (centres unmarked) [OZ09] | 0
CC(C)(CO)NC(=O)[C@H]1CC[C@]2(CC1)OOC1(O2)C2CC3CC(C2)CC1C3 (some centres unmarked) [OZ129] | 0
O=C(O)c1ccc(C2(c3ccc(C(=O)O)cc3)OOC3(O2)C2CC4CC(C2)CC3C4)cc1 (centres unmarked) [OZ135] | 1

Same assay, conditions: percent reduction in parasitemia day 3 post-infection; single 10 mg/kg sc in 3% ethanol and 7% Tween 80; mice

Compound | Activity (%) sc [%]
O=[N+]([O-])c1ccc(C2(c3ccccc3)OOC3(O2)C2CC4CC(C2)CC3C4)cc1 (centres unmarked) [OZ95] | 49
O=S(=O)(c1ccc(Cl)cc1)N1CCC2(CC1)OOC1(O2)C2CC3CC(C2)CC1C3 (centres unmarked) [OZ57] | 98.4
Fc1ccc(C2(c3ccc(F)cc3)OOC3(O2)C2CC4CC(C2)CC3C4)cc1 (centres unmarked) [OZ44] | 99.9
COCC(=O)N(C1CCCCC1)C1CCC2(CC1)OOC1(O2)C2CC3CC(C2)CC1C3 (centres unmarked) [OZ174] | 90
C1CCC2(CC1)OOC1(CCC3(CC1)OOC1(CCCCC1)O3)O2 (centres unmarked) [OZ09] | 81
CC(C)(CO)NC(=O)[C@H]1CC[C@]2(CC1)OOC1(O2)C2CC3CC(C2)CC1C3 (some centres unmarked) [OZ129] | 0
O=C(O)c1ccc(C2(c3ccc(C(=O)O)cc3)OOC3(O2)C2CC4CC(C2)CC3C4)cc1 (centres unmarked) [OZ135] | 0

Same assay, conditions: percent reduction in parasitemia day 3 post-infection; single po dose in standard suspending vehicle (SSV); mice

Compound | Activity (%) SSVpo [%]
O=[N+]([O-])c1ccc(C2(c3ccccc3)OOC3(O2)C2CC4CC(C2)CC3C4)cc1 (centres unmarked) [OZ95] | 0
COCC(=O)N(C1CCCCC1)C1CCC2(CC1)OOC1(O2)C2CC3CC(C2)CC1C3 (centres unmarked) [OZ174] | 15
CC(C)(CO)NC(=O)[C@H]1CC[C@]2(CC1)OOC1(O2)C2CC3CC(C2)CC1C3 (some centres unmarked) [OZ129] | 4
O=C(O)c1ccc(C2(c3ccc(C(=O)O)cc3)OOC3(O2)C2CC4CC(C2)CC3C4)cc1 (centres unmarked) [OZ135] | 0

Same assay, conditions: single 10 mg/kg po in 3% ethanol and 7% Tween 80; untreated control 5.6 ± 0.3

Compound | Survival (days) po
O=[N+]([O-])c1ccc(C2(c3ccccc3)OOC3(O2)C2CC4CC(C2)CC3C4)cc1 (centres unmarked) [OZ95] | 6.0/6.0/6.0 days
O=S(=O)(c1ccc(Cl)cc1)N1CCC2(CC1)OOC1(O2)C2CC3CC(C2)CC1C3 (centres unmarked) [OZ57] | 6.0 days
Fc1ccc(C2(c3ccc(F)cc3)OOC3(O2)C2CC4CC(C2)CC3C4)cc1 (centres unmarked) [OZ44] | 7.0 days
COCC(=O)N(C1CCCCC1)C1CCC2(CC1)OOC1(O2)C2CC3CC(C2)CC1C3 (centres unmarked) [OZ174] | 6.7 days
C1CCC2(CC1)OOC1(CCC3(CC1)OOC1(CCCCC1)O3)O2 (centres unmarked) [OZ09] | 5.0 days
CC(C)(CO)NC(=O)[C@H]1CC[C@]2(CC1)OOC1(O2)C2CC3CC(C2)CC1C3 (some centres unmarked) [OZ129] | 5.3 days
O=C(O)c1ccc(C2(c3ccc(C(=O)O)cc3)OOC3(O2)C2CC4CC(C2)CC3C4)cc1 (centres unmarked) [OZ135] | 5.3/5.3/5.3 days

Same assay, conditions: single 10 mg/kg sc in 3% ethanol and 7% Tween 80; untreated control 5.6 ± 0.3

Compound | Survival (days) sc
O=[N+]([O-])c1ccc(C2(c3ccccc3)OOC3(O2)C2CC4CC(C2)CC3C4)cc1 (centres unmarked) [OZ95] | 6.0/6.0/6.0 days
O=S(=O)(c1ccc(Cl)cc1)N1CCC2(CC1)OOC1(O2)C2CC3CC(C2)CC1C3 (centres unmarked) [OZ57] | 7.7 days
Fc1ccc(C2(c3ccc(F)cc3)OOC3(O2)C2CC4CC(C2)CC3C4)cc1 (centres unmarked) [OZ44] | 8.3 days
COCC(=O)N(C1CCCCC1)C1CCC2(CC1)OOC1(O2)C2CC3CC(C2)CC1C3 (centres unmarked) [OZ174] | 10.3 days
C1CCC2(CC1)OOC1(CCC3(CC1)OOC1(CCCCC1)O3)O2 (centres unmarked) [OZ09] | 6.3 days
CC(C)(CO)NC(=O)[C@H]1CC[C@]2(CC1)OOC1(O2)C2CC3CC(C2)CC1C3 (some centres unmarked) [OZ129] | 5.7 days
O=C(O)c1ccc(C2(c3ccc(C(=O)O)cc3)OOC3(O2)C2CC4CC(C2)CC3C4)cc1 (centres unmarked) [OZ135] | 5.3/5.3/5.3 days

Same assay, conditions: single po dose in SSV; untreated control 5.6 ± 0.3

Compound | Survival (days) SSVpo
O=[N+]([O-])c1ccc(C2(c3ccccc3)OOC3(O2)C2CC4CC(C2)CC3C4)cc1 (centres unmarked) [OZ95] | 6.0/6.0/6.0 days
COCC(=O)N(C1CCCCC1)C1CCC2(CC1)OOC1(O2)C2CC3CC(C2)CC1C3 (centres unmarked) [OZ174] | 7.3 days
CC(C)(CO)NC(=O)[C@H]1CC[C@]2(CC1)OOC1(O2)C2CC3CC(C2)CC1C3 (some centres unmarked) [OZ129] | 5.7 days
O=C(O)c1ccc(C2(c3ccc(C(=O)O)cc3)OOC3(O2)C2CC4CC(C2)CC3C4)cc1 (centres unmarked) [OZ135] | 5.3/5.3/5.3 days
